The test concerns P388 leukemia ip, CD2F1 mice, survival T/C. In words: NCI In Vivo Anticancer Drug Screen. Data for tumor model P388 Leukemia (intraperitoneal) in CD2F1 (CDF1) mice. The note with it: endpoint: median survival time, higher = longer survival. The essentials:
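Mice carrying the transplanted tumor received test compound or vehicle. Survival was recorded in each group, and the value is the treated-group measurement divided by that of the vehicle-treated control group.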

The mark [1] stands for this setting: dose: 15.0 mg/kg/injection, schedule: Q01DX005 (ip), vehicle: saline with Tween-80.
The mark [2] stands for this setting: dose: 30.0 mg/kg/injection, schedule: Q01DX005 (ip), vehicle: saline with Tween-80.
[3] abbreviates: dose: 60.0 mg/kg/injection, schedule: Q01DX005 (ip), vehicle: saline with Tween-80.
Setting [4] is: dose: 240.0 mg/kg/injection, schedule: Q01DX005 (ip), vehicle: saline with Tween-80.
The mark [5] stands for this setting: dose: 50.0 mg/kg/injection, schedule: Q01DX005 (ip), vehicle: saline with Tween-80.
[6] abbreviates: dose: 100.0 mg/kg/injection, schedule: Q01DX005 (ip), vehicle: saline with Tween-80.
Where [7] appears, read: dose: 200.0 mg/kg/injection, schedule: Q01DX005 (ip), vehicle: saline with Tween-80.
[8] abbreviates: dose: 6.25 mg/kg/injection, schedule: Q04DX002 (ip), vehicle: saline with Tween-80.
The mark [9] stands for this setting: dose: 12.5 mg/kg/injection, schedule: Q04DX002 (ip), vehicle: saline with Tween-80.
Where [10] appears, read: dose: 50.0 mg/kg/injection, schedule: Q01DX005 (ip), vehicle: Klucel (hydroxypropylcellulose) (HPC).
The mark [11] stands for this setting: dose: 100.0 mg/kg/injection, schedule: Q01DX005 (ip), vehicle: Klucel (hydroxypropylcellulose) (HPC).
Where [12] appears, read: dose: 200.0 mg/kg/injection, schedule: Q01DX005 (ip), vehicle: Klucel (hydroxypropylcellulose) (HPC).
[13] abbreviates: dose: 60.0 mg/kg/injection, schedule: Q01DX005 (ip), vehicle: Klucel (hydroxypropylcellulose) (HPC).
The mark [14] stands for this setting: dose: 120.0 mg/kg/injection, schedule: Q01DX005 (ip), vehicle: Klucel (hydroxypropylcellulose) (HPC).
[15] abbreviates: dose: 240.0 mg/kg/injection, schedule: Q01DX005 (ip), vehicle: Klucel (hydroxypropylcellulose) (HPC).
[16] abbreviates: dose: 50.0 mg/kg/injection, schedule: Q01DX009 (ip), vehicle: Klucel (hydroxypropylcellulose) (HPC).
Where [17] appears, read: dose: 100.0 mg/kg/injection, schedule: Q01DX009 (ip), vehicle: Klucel (hydroxypropylcellulose) (HPC).
The mark [18] stands for this setting: dose: 12.5 mg/kg/injection, schedule: Q01DX009 (ip), vehicle: Klucel (hydroxypropylcellulose) (HPC).

T/C data for 22 compounds are collected here from PubChem BioAssay AID330 (DTP/NCI, 2004).

The structures appear in SMILES notation. Several values for one entry are separate records, joined by “and”; a condition that tells them apart may be missing. Equal entries are not always repeated. Inconclusive results and toxic doses are left out.

As for `CN(C)c1cccc2c(S(=O)(=O)NCCCCCCCCCCCCNS(=O)(=O)c3cccc4c(N(C)C)cccc34)cccc12`, the T/C by setting is: under setting [1], 96 % of control; under setting [2], 92 % of control; under setting [3], 87 % of control; under setting [4], 88 % of control.
As for `CN(C)CCN1C(=O)C2(C)C3CCC(O3)C2(C)C1=O` (configuration not stated), the T/C under setting [5] was 103 % of control, the T/C under setting [6] was 100 % of control and the T/C under setting [7] is 100 % of control.
Turning to `CC([NH-])CC(C)[NH-].[Br][Pt+2][Br]` (configuration not stated), the T/C is 154 % of control and 171 % of control and 159 % of control under setting [8]; 188 % of control and 183 % of control and 186 % of control under setting [9].
Consider `CC1=CC2(C)C=C(C)C3(OC(c4ccccc4)=C(C#N)C3=N2)C1=O` (configuration not stated), for which the T/C reads like this: under setting [5], 103 % of control; under setting [6], 105 % of control; under setting [7], 111 % of control.
For the compound `CN=C(N)N/N=C/c1ccc2c(c1)Cc1ccccc1-2`, the T/C was 106 % of control and 122 % of control under setting [8]; 109 % of control under setting [9]; 107 % of control (dose: 25.0 mg/kg/injection, schedule: Q04DX002 (ip), vehicle: saline with Tween-80); 119 % of control and 124 % of control (dose: 50.0 mg/kg/injection, schedule: Q04DX002 (ip), vehicle: saline with Tween-80); 118 % of control (dose: 100.0 mg/kg/injection, schedule: Q04DX002 (ip), vehicle: saline with Tween-80).
For the compound `CCOC(=O)NCCCBr`, the T/C by setting is: (dose: 50.0 mg/kg/injection, schedule: Q01DX009 (ip), vehicle: saline with Tween-80) 105 % of control; (dose: 100.0 mg/kg/injection, schedule: Q01DX009 (ip), vehicle: saline with Tween-80) 99 % of control; (dose: 200.0 mg/kg/injection, schedule: Q01DX009 (ip), vehicle: saline with Tween-80) 107 % of control.
As for `COC1C2=C(CCCC2)OC(=O)C1(Cl)c1ccccc1` (configuration not stated), the T/C was 96 % of control under setting [10], 101 % of control under setting [11] and 101 % of control under setting [12].
Take `COc1nc(OC)c2cnn(-c3ccc(Cl)cc3)c2n1`: the T/C by setting is: (dose: 30.0 mg/kg/injection, schedule: Q01DX005 (ip), vehicle: Klucel (hydroxypropylcellulose) (HPC)) 89 % of control; under setting [13], 89 % of control; under setting [14], 92 % of control; under setting [15], 89 % of control.
As to `COC(=O)C(Cc1c[nH]c2ccccc12)NC(=O)C(NC(=O)OC(C)(C)C)C(C)C` (configuration not stated), the T/C was 101 % of control under setting [16]; 99 % of control under setting [17]; 97 % of control (dose: 200.0 mg/kg/injection, schedule: Q01DX009 (ip), vehicle: Klucel (hydroxypropylcellulose) (HPC)); 90 % of control (dose: 400.0 mg/kg/injection, schedule: Q01DX009 (ip), vehicle: Klucel (hydroxypropylcellulose) (HPC)).
On to `OCc1c(CO)c(C(F)(F)F)n2c1CCC2`, for which the T/C runs as follows: under setting [16], 104 % of control; under setting [17], 104 % of control.
With `O=CNc1ccc2c3c(cccc13)-c1ccccc1-2`, the T/C reads like this: under setting [10], 89 % of control; under setting [11], 97 % of control; under setting [12], 100 % of control.
For `CSC1=C(C#N)C(=O)N=S(C)(C)=N1`, the T/C under setting [5] was 108 % of control, the T/C under setting [6] was 110 % of control and the T/C under setting [7] was 100 % of control.
For `O=C1OC(c2ccccc2)(c2ccccc2)c2cc3c(cc21)C(c1ccccc1)(c1ccccc1)OC3=O`, the T/C was 93 % of control (dose: 100.0 mg/kg/injection, schedule: Q01DX001 (ip), vehicle: saline); 93 % of control (dose: 200.0 mg/kg/injection, schedule: Q01DX001 (ip), vehicle: saline); 92 % of control (dose: 400.0 mg/kg/injection, schedule: Q01DX001 (ip), vehicle: saline).
For the compound `Nc1cccc(S(=O)(=O)N/N=C/C(=O)O)c1`, the T/C (dose: 12.5 mg/kg/injection, schedule: Q01DX009 (ip), vehicle: water) was 111 % of control; the T/C (dose: 25.0 mg/kg/injection, schedule: Q01DX009 (ip), vehicle: water) was 116 % of control; the T/C (dose: 50.0 mg/kg/injection, schedule: Q01DX009 (ip), vehicle: water) is 119 % of control; the T/C (dose: 100.0 mg/kg/injection, schedule: Q01DX009 (ip), vehicle: water) is 117 % of control.
`COC(=O)c1nnn(-c2ccc(C)c(C)c2)c1N`: the T/C by setting is: under setting [3], 90 % of control; (dose: 120.0 mg/kg/injection, schedule: Q01DX005 (ip), vehicle: saline with Tween-80) 93 % of control; under setting [4], 94 % of control.
Regarding `CC1=NN(c2ccc(Cl)cc2)C(=O)/C1=C\c1c(C)[nH]n(-c2ccc(Cl)cc2)c1=O`, the T/C by setting is: under setting [5], 110 % of control; under setting [6], 101 % of control; under setting [7], 96 % of control.
Consider `c1coc(-c2cc(-c3cc(-c4ccco4)on3)no2)c1`, for which the T/C is 105 % of control under setting [13], 100 % of control under setting [14] and 107 % of control under setting [15].
Take `O=C(CCCl)N/N=C/c1ccccc1`: the T/C is, setting by setting: (dose: 2.5 mg/kg/injection, schedule: Q01DX009 (ip), vehicle: saline) 104 % of control; (dose: 5.0 mg/kg/injection, schedule: Q01DX009 (ip), vehicle: saline) 98 % of control and 101 % of control; (dose: 10.0 mg/kg/injection, schedule: Q01DX009 (ip), vehicle: saline) 114 % of control and 115 % of control.
For the compound `O=c1[nH]ncn1-c1ccccc1`, the T/C by setting is: under setting [18], 100 % of control; (dose: 25.0 mg/kg/injection, schedule: Q01DX009 (ip), vehicle: Klucel (hydroxypropylcellulose) (HPC)) 109 % of control; under setting [16], 98 % of control; under setting [17], 106 % of control.
Regarding `CCOC(=O)Nc1cc2c(c(N)n1)N=C(c1ccc(Cl)cc1)CN2`, the T/C is 92 % of control (dose: 1.5 mg/kg/injection, schedule: Q01DX009 (ip), vehicle: Klucel (hydroxypropylcellulose) (HPC)); 111 % of control (dose: 3.0 mg/kg/injection, schedule: Q01DX009 (ip), vehicle: Klucel (hydroxypropylcellulose) (HPC)); 95 % of control (dose: 12.0 mg/kg/injection, schedule: Q01DX009 (ip), vehicle: Klucel (hydroxypropylcellulose) (HPC)); 86 % of control under setting [18]; 101 % of control (dose: 50.0 mg/kg/injection, schedule: Q04DX003 (ip), vehicle: Klucel (hydroxypropylcellulose) (HPC)).
`OC1CCC(C2C3CCCCC3C3CCCCC3C2C2CCC(O)CC2)CC1` (configuration not stated): the T/C under setting [5] was 99 % of control and the T/C under setting [6] is 99 % of control.
Consider `CC(C)(C)[OH+][O-].[O-]c1ccc(Cl)cc1C=Nc1ccc(Cl)cc1[O-].[O]=[V]`, for which the T/C under setting [1] is 100 % of control; the T/C under setting [2] was 100 % of control; the T/C under setting [3] is 101 % of control and 93 % of control.
